Measured values reported in patent EP0057664A2, “Clavam derivatives” (CIBA-GEIGY AG, priority 1981, dated 1982).
In brackets after ≈: the same amount, converted by molar mass. Entries after “also recorded” stand apart in the source; their conditions may differ. Read-outs that look alike come from different tables or passages of the source.

Legend:
Mucor miehei = assay: Plate agar diffusion test, minimal inhibitory concentration against Mucor miehei; type: cell-based; details: Rhizomucor miehei
Description: Die antibakterielle Wirkung kommt sowohl gegen gram-positive wie gram-negative Bakterien zur Geltung, wie z.B. im Platten-Agardiffusionstest in vitro [10 µl/Testrondelle (6 mm ø)] gezeigt werden kann, wo sie bei verschiedenen pathogenen Keimen eine minimale Hemmkonzentration im Bereiche von 1-200 µg/ml zeigen. Von den gegenüber den neuen Verbindungen empfindlichen gram-positiven Bakterien seien z.B. die folgenden genannt: Bacillus cereus, Bacillus subtilis, Clostridium pasteurianum, Corynebacterium rathayi, von den gram-negativen folgende: Agrobacterium tumefaciens, Erwinia amylovorum, Escherichia coli K 12 wild type, Klebsiella aerogenes, Serratia marcescens 13880, Serratia marcescens 30122.
Die antifungische Wirkung tritt praktisch gegenüber den meisten Pilzen auf. So weist das Antibiotikum Tü 1718 und insbesondere die Verbindungen der Formel (IV) im oben genannten Agardiffusionstest eine minimale Hemmkonzentration im Bereiche von ca. 0,1-200 µg/ml gegenüber sehr vielen pathogenen und nicht pathogenen Pilzen, z.B. gegen Pythium debarianum, Mucor hiemalis+, Mucor hiemalis-, Mucor miehei, Trichophyton mentagrophytes, Botrytis cinerea 157, Aspergillus fumigatus, und mehrere andere. So besitzen z.B. die nachstehend aufgeführten spezifischen Verbindungen die folgenden minimalen Hemmkonzentrationen gegenüber Mucor miehei: • Komponente A1 von Antibiotikum Tü 1718, d.h. (2S,5S)-2-(2-Hydroxyäthyl)-clavam = 10 ug/ml
(§1) Bei der […] kann der Plattendiffusionstest dienen, wobei vorzugsweise folgende Testkeime verwendet werden: Clostridium pasteurianum, Escherichia coli und Mucor miehei. Die minimale Hemmkonzentration der Hauptkomponente des Antibiotikums in µg/m1 gegenüber den eben genannten Mikroorganismen ist wie folgt: • Clostridium pasteurianum 50

[1] = tested on: Tumorzellen der Zellinie NS-1; assay: Tumour-inhibiting effect on tumour cells of cell line NS-1; type: cell-based, Maus; details: Zellinie NS-1, compared with Actinomycin C
Description: Das neue Antibiotikum, seine Extrakte und die neuen Verbindungen der Formel (IV) besitzen zudem auch eine tumorhemmende Wirkung, wie in Versuchen an Tumorzellen der Zellinie NS-1, einer Variante der Zelline P 3, die aus Mineralöl-induzierten Plastocytomen der Maus stammen, gezeigt werden kann.

[2] = Stability solvent-free and in aqueous solution; type: physicochemical
Description: (§2) Als Aufbewahrungsmittel eignet sich Chloroform. […] Es ist somit möglich, die Verbindungen in Form all jener pharmazeutischen Präparate zu verwenden, die Wasser enthalten, wie insbesondere von wässrigen Lösungen bei der parenteralen oder oralen Applikation, oder Cremen oder Salben oder Tinkturen bei der topischen Gabe.
(§3) Als Aufbewahrungsmittel eignet sich Chloroform. […] Bei der Dünnschichtchromatographie z.B. an Kieselgel-Alufolien kann die Substanz z.B. durch folgende Sprühreagenzien sichtbar gemacht werden: Ehrlich's Reagenz, rot; Vanillin/ ^H2S04, lindgrün; Ninhydrin, gelb mit violettem Rand.

[3] = Solubility in solvents and water; type: physicochemical
Description: as §2, §3

Clostridium pasteurianum = assay: Plate diffusion test, minimal inhibitory concentration against Clostridium pasteurianum; type: cell-based; details: Plattendiffusionstest, read-out: minimale Hemmkonzentration
Description: as §1

[4] = Agardiffusionstest, read-out: minimale Hemmkonzentration gegenüber Mucor miehei

Row | Compound | MIC (Mucor miehei; [4]) [µg/mL] | tumorhemmende Wirkung [1] | MIC (Mucor miehei; Plattendiffusionstest, Mucor miehei, read-out: minimale Hemmkonzentration) [µg/mL] | Stabilität in lösungsmittelfreiem Zustand ([2]; lösungsmittelfrei) | Stabilität in wässerigen Lösungen ([2]; wässerige Lösungen, pH 5-7) | Löslichkeit in Chloroform, Aceton, Methanol ([3]; Chloroform, Aceton, Methanol) | Löslichkeit in Wasser ([3]; Wasser) | MIC (Clostridium pasteurianum) [µg/mL]
1 | O=C(COc1ccccc1)OCC[C@H]1CN2C(=O)C[C@@H]2O1 [(2S,5S)-2-(2-Phenoxyacetoxyäthyl)-clavam] | 0.1 (≈ 0.343 µM) |  |  |  |  |  |  | 
2 | O=C1C[C@@H]2O[C@@H](CCO)CN12 [Komponente A1 von Antibiotikum Tü 1718, (2S,5S)-2-(2-Hydroxyäthyl)-clavam] | 10 (≈ 63.6 µM) | ca. die Hälfte der tumorhemmenden Wirkung von Actinomycin C | 10 to 20 (≈ 63.6 to 127 µM) | beschränkt stabil | einigermassen gute Stabilität | sehr gut; also recorded: gut löslich | weniger gut löslich; also recorded: mässig löslich | 50 (≈ 318 µM)
